For 26 molecules, IC50 results are on record in patent US10087172B2, “Compounds and their methods of use” (AGIOS PHARMACEUTICALS, INC, priority 2012, dated 2018).

The target in this experiment is T1, glutaminase (GAC) (Homo sapiens, UniProt O94925).
T1 sequence (O94925 55-598 isoform O94925-3 limits assumed): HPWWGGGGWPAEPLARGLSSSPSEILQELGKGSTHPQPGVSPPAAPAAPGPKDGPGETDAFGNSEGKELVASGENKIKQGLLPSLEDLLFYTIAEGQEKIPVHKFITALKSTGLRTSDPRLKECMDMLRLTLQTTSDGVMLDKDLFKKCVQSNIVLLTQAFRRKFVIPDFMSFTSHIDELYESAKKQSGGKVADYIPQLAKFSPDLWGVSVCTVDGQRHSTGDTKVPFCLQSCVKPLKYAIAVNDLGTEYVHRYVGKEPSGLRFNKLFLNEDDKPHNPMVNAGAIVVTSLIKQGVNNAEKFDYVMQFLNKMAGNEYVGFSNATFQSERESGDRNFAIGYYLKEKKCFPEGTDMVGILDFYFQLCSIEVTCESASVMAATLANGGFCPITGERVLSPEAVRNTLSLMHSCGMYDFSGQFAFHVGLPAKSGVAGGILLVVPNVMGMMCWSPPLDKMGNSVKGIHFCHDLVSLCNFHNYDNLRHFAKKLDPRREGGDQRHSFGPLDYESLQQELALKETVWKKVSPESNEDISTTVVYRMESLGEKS
As to the kind of experiment: Glutaminase (GAC) coupled endpoint enzymatic assay (glutamate dehydrogenase/diaphorase/resazurin, Ex544/Em590). It is filed as biochemical. The following applies: inhibition of glutaminase, tested in an assay of Example A or Example B; class symbols A-E. The text has this:
In certain embodiments, exemplary compounds of Formula I include the compounds described in Table 1 and in the Examples. A compound described herein may be tested for its ability to inhibit glutaminase, e.g., by an assay as described in the Examples. For simplicity, the inhibition activity of these compounds is represented as an IC50 tested in an assay of Example A or Example B in Table 1. […] “N/A” refers to compounds wherein the IC50 is unavailable.
In this example, the enzymatic activity of glutaminase is measured through a coupled endpoint assay. Glutamine and phosphate are supplied to GAC at a concentration equal to Km and AC50, respectively, and GAC concentration is adjusted to give a linear reaction for 60 minutes. The glutamate produced is converted to 2-OG by a kinetic excess of glutamate dehydrogenase. This second step is configured for 2× Km for NAD, since excess NAD is inhibitory. However, a kinetic excess of the third coupling enzyme, diaphorase, recycles NAD from NADH to keep the NAD concentration constant during the timecourse of the assay. Diaphorase, also supplied in kinetic excess, oxidizes NADH produced by GDH back to NAD with the concomitant reduction of rezasurin to the highly fluorescent resorufin. Resorufin in measured after the assay is stopped with SDS by Ex544/Em590. A reduction in the signal indicates inhibition of some component of the coupled enzyme system. Prospective hits are counterscreened against GDH/diaphorase alone to remove hits to the coupling enzyme system in a second assay.
2. Buffers 2× Buffer (300 mM NaCl, 100 mM HEPES pH 8.5, 0.1% BSA, 0.5 mM EDTA, 100 mM sodium phosphate pH 8.5) 5× Substrate Mix (1× Buffer final concentration, with 13 mM glutamine, 100 μM resazurin, 50 μg/ml diaphorase) 1.2× Enzyme Mix (1× Buffer final concentration, with 0.875 μg/ml GAC, 1.56 mM NAD, 6.25 units/ml GDH) Stop Mix (6% SDS in ddH2O) Reaction Procedure 1. Add 1 μl compound in 100% DMSO 2. Add 40 μl of Enzyme Mix and incubate for 60 minute at room temperature 3. Add 10 μl of Substrate Mix to start reaction 4. Stop reaction with 25 μl of 6% SDS and read Ex544 Em 590
With `O=C(Nc1nnc([C@H]2CCC[C@H](c3nnc(NC(=O)[C@H](O)c4ccccc4)s3)C2)s1)[C@H](O)c1ccccc1` [Compound 370, (2R,2′R)—N,N′-(5,5′-((1S,3S)-cyclohexane-1,3-diyl)bis(1,3,4-thiadiazole-5,2-diyl))bis(2-hydroxy-2-phenylacetamide)], the IC50 is < 100 nM.

Molecule `CC(C)Oc1cccc(CC(=O)Nc2nnc([C@H]3CCC[C@H](c4nnc(NC(=O)Cc5cccc(OC(C)C)c5)s4)C3)s2)c1` [Compound 91, N,N′-(5,5′-((1S,3S)-cyclohexane-1,3-diyl)bis(1,3,4-thiadiazole-5,2-diyl))bis(2-(3-isopropoxyphenyl)acetamide)] returned an IC50 of 100 to 500 nM. Consider `Nc1cccc(CC(=O)Nc2nnc([C@H]3CCC[C@H](c4nnc(NC(=O)Cc5cccc(N)c5)s4)C3)s2)c1` [Compound 53, N,N′-(5,5′-((1S,3S)-cyclohexane-1,3-diyl)bis(1,3,4-thiadiazole-5,2-diyl))bis(2-(3-aminophenyl)acetamide)], for which the IC50 is < 100 nM. The value for `N#Cc1cccc(CC(=O)Nc2nnc([C@H]3CCC[C@H](c4nnc(NC(=O)Cc5cccc(CN)c5)s4)C3)s2)c1` [Compound 361] was < 100 nM; that for `CC(=O)N(C)c1ccc(CC(=O)Nc2nnc([C@H]3CCC[C@H](c4nnc(NC(=O)Cc5ccc(N(C)C(C)=O)cn5)s4)C3)s2)nc1` [Compound 368] was < 100 nM.

On to `O=C(Cc1cccc(OC(F)(F)F)c1)Nc1nnc([C@H]2CCC[C@H](c3nnc(NC(=O)[C@@H](O)c4ccccc4)s3)C2)s1` [Compound 372, (S)-2-hydroxy-2-phenyl-N-(5-((1S,3S)-3-(5-(2-(3-(trifluoromethoxy)phenyl)acetamido)-1,3,4-thiadiazol-2-yl)cyclohexyl)-1,3,4-thiadiazol-2-yl)acetamide], for which the half-inhibitory concentration (IC50) is < 100 nM. To `COc1cccc(CC(=O)Nc2nnc([C@H]3CCC[C@H](c4nnc(NC(=O)Cc5cccc(OC)c5)s4)C3)s2)c1` (single isomer, unassigned) [Compound 71] belongs < 100 nM; to `O=C(Cc1cccc(N2CC(F)(F)C2)n1)Nc1nnc([C@H]2CCC[C@H](c3nnc(NC(=O)CC4CC4)s3)C2)s1` [Compound 349, 2-cyclopropyl-N-(5-((1S,3S)-3-(5-(2-(6-(3,3-difluoroazetidin-1-yl)pyridin-2-yl)acetamido)-1,3,4-thiadiazol-2-yl)cyclohexyl)-1,3,4-thiadiazol-2-yl)acetamide], < 100 nM.

In the case of `O=C(/C=C/c1ccccn1)Nc1nnc([C@H]2CCC[C@H](c3nnc(NC(=O)/C=C/c4ccccn4)s3)C2)s1` [Compound 45, (2E,2′E)-N,N′-(5,5′-((1S,3S)-cyclohexane-1,3-diyl)bis(1,3,4-thiadiazole-5,2-diyl))bis(3-(pyridin-2-yl)acrylamide)], the IC50 lay within 100 to 500 nM. As to `CC(=O)Nc1cccc(CC(=O)Nc2nnc([C@H]3CCC[C@H](c4nnc(NC(=O)Cc5cccc(NC(C)=O)n5)s4)C3)s2)n1` [Compound 104, N,N′-(5,5′-((1S,3S)-cyclohexane-1,3-diyl)bis(1,3,4-thiadiazole-5,2-diyl))bis(2-(6-acetamidopyridin-2-yl)acetamide)], the IC50 is < 100 nM. On to `O=C(Nc1nnc([C@H]2CC[C@H](c3nnc(NC(=O)[C@@H](O)c4ccccc4)s3)C2)s1)[C@@H](O)c1ccccc1` [Compound 379], for which the half-inhibitory concentration (IC50) was < 100 nM. The value for `O=C(Cc1ccnc(N2CC(F)(F)C2)n1)Nc1nnc([C@H]2CCC[C@H](c3nnc(NC(=O)Cc4ccnc(N5CC(F)(F)C5)n4)s3)C2)s1` [Compound 346, N,N′-(5,5′-((1R,3R)-cyclohexane-1,3-diyl)bis(1,3,4-thiadiazole-5,2-diyl))bis(2-(2-(3,3-difluoroazetidin-1-yl)pyrimidin-4-yl)acetamide)] was < 100 nM. As to `N#Cc1cccc(CC(=O)Nc2nnc([C@H]3CCC[C@H](c4nnc(NC(=O)Cc5cccc(C6CCNCC6)c5)s4)C3)s2)c1` [Compound 355], the IC50 is < 100 nM. The value for `O=C(Cc1cccc(OC(F)(F)F)c1)Nc1nnc([C@H]2CC[C@H](c3nnc(NC(=O)Cc4cccc(N5CC(F)(F)C5)n4)s3)C2)s1` [Compound 373] was < 100 nM.

Consider `CS(=O)(=O)c1ccc(CC(=O)Nc2nnc([C@H]3CCC[C@H](c4nnc(NC(=O)Cc5ccc(S(C)(=O)=O)cc5)s4)C3)s2)cc1` [Compound 66, N,N′-(5,5′-((1S,3S)-cyclohexane-1,3-diyl)bis(1,3,4-thiadiazole-5,2-diyl))bis(2-(4-(methylsulfonyl)phenyl)acetamide)], for which the concentration for half-maximal inhibition (IC50) was < 100 nM. The value for `N#Cc1cccc(CC(=O)Nc2nnc([C@H]3CCC[C@H](c4nnc(NC(=O)Cc5cccc(OC(F)(F)F)c5)s4)C3)s2)n1` [Compound 375, 2-(6-cyanopyridin-2-yl)-N-(5-((1S,3S)-3-(5-(2-(3-(trifluoromethoxy)phenyl)acetamido)-1,3,4-thiadiazol-2-yl)cyclohexyl)-1,3,4-thiadiazol-2-yl)acetamide] was < 100 nM; that for `O=C(Cc1ccc([N+](=O)[O-])cc1)Nc1nnc([C@H]2CCC[C@H](c3nnc(NC(=O)Cc4ccc([N+](=O)[O-])cc4)s3)C2)s1` [Compound 64, N,N′-(5,5′-((1S,3S)-cyclohexane-1,3-diyl)bis(1,3,4-thiadiazole-5,2-diyl))bis(2-(4-nitrophenyl)acetamide)] was 1000 to 2000 nM; that for `O=C(Cc1ccc(Cl)cc1)Nc1nnc([C@H]2CCC[C@H](c3nnc(NC(=O)Cc4ccc(Cl)cc4)s3)C2)s1` [Compound 50] was 100 to 500 nM. For `O=C(Cc1cccc(CO)c1)Nc1nnc([C@H]2CCC[C@H](c3nnc(NC(=O)Cc4cccc(CO)c4)s3)C2)s1` [Compound 351], the IC50 is < 100 nM. For the molecule `CN(C)c1cccc(CC(=O)Nc2nnc([C@H]3CCC[C@H](c4nnc(NC(=O)Cc5cccc(N(C)C)c5)s4)C3)s2)c1` [Compound 35, N,N′-(5,5′-((1S,3S)-cyclohexane-1,3-diyl)bis(1,3,4-thiadiazole-5,2-diyl))bis(2-(3-(dimethylamino)phenyl)acetamide)], the IC50 is < 100 nM. The value for `O=C(Cc1cccnc1)Nc1nnc([C@H]2CCC[C@H](c3nnc(NC(=O)Cc4cccnc4)s3)C2)s1` [Compound 28, N,N′-(5,5′-((1S,3S)-cyclohexane-1,3-diyl)bis(1,3,4-thiadiazole-5,2-diyl))bis(2-(pyridin-3-yl)acetamide)] was < 100 nM; that for `CC(C)(CO)C(=O)Nc1nnc([C@H]2CCC[C@H](c3nnc(NC(=O)C(C)(C)CO)s3)C2)s1` [Compound 63, N,N′-(5,5′-((1S,3S)-cyclohexane-1,3-diyl)bis(1,3,4-thiadiazole-5,2-diyl))bis(3-hydroxy-2,2-dimethylpropanamide)] was 500 to 1000 nM; that for `O=C(Cc1ccccn1)Nc1nnc([C@H]2CCC[C@H](c3nnc(NC(=O)Cc4ccccn4)s3)C2)s1` (single isomer, unassigned) [Compound 14] was < 100 nM.

`COc1ccc(CC(=O)Nc2nnc([C@H]3CC[C@H](c4nnc(NC(=O)Cc5cccc(N6CC(F)(F)C6)n5)s4)C3)s2)cn1` [Compound 358]: the IC50 was < 100 nM.

Turning to `N#Cc1cccc(CC(=O)Nc2nnc([C@H]3CCC[C@H](c4nnc(NC(=O)Cc5cccc(N6CC(N)C6)n5)s4)C3)s2)c1` [Compound 366, 2-(6-(3-aminoazetidin-1-yl)pyridin-2-yl)-N-(5-((1S,3S)-3-(5-(2-(3-cyanophenyl)acetamido)-1,3,4-thiadiazol-2-yl)cyclohexyl)-1,3,4-thiadiazol-2-yl)acetamide], the IC50 was < 100 nM. The value for `COc1cccc(CC(=O)Nc2nnc([C@H]3CCC[C@H](c4nnc(NC(=O)Cc5cccc(OC)c5OC)s4)C3)s2)c1OC` [Compound 112, N,N′-(5,5′-((1S,3S)-cyclohexane-1,3-diyl)bis(1,3,4-thiadiazole-5,2-diyl))bis(2-(2,3-dimethoxyphenyl)acetamide)] was < 100 nM.
